From the supplement of paper PMC10307832

Experiments:
Experiment in all cases: relative viability (nuclei count vs DMSO), 5 days (fraction); higher = more cells survive
[1] = test system: NCI-H647
Procedure, shortened: (§1)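 Dosing by pin tool came one day after lung cancer cell lines were seeded in 1536-well plates, using either one drug or a fixed anchor-drug dose plus five library-drug doses (not always all listed) in √10 steps. After 5 days, nuclei were counted on 4× images. Relative viability is treated-well nuclei count divided by vehicle-well nuclei count, and values are medians of duplicate plates.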

[2] = test system: NCI-H322M
Procedure, shortened: as §1

[3] = test system: PC-3 [JPC-3]
Procedure, shortened: as §1

[4] = test system: NCI-H1650
Procedure, shortened: as §1

[5] = test system: LCLC-97TM1
Procedure, shortened: as §1

[6] = test system: NCI-H23
Procedure, shortened: as §1

[7] = test system: NCI-H1915
Procedure, shortened: as §1

[8] = test system: NCI-H838
Procedure, shortened: as §1

[9] = test system: NCI-H727
Procedure, shortened: as §1

[10] = test system: NCI-H358
Procedure, shortened: as §1

[11] = test system: SK-LU-1
Procedure, shortened: as §1

[12] = test system: NCI-H661
Procedure, shortened: as §1

[13] = test system: NCI-H1792
Procedure, shortened: as §1

[14] = test system: EKVX
Procedure, shortened: as §1

[15] = test system: NCI-H1975
Procedure, shortened: as §1

[16] = test system: NCI-H520
Procedure, shortened: as §1

[17] = test system: NCI-H1437
Procedure, shortened: as §1

[18] = test system: NCI-H460
Procedure, shortened: as §1

[19] = test system: NCI-H1666
Procedure, shortened: as §1

[20] = test system: NCI-H596
Procedure, shortened: as §1

With `CCNC(=O)c1noc(-c2cc(C(C)C)c(O)cc2O)c1-c1ccc(CN2CCOCC2)cc1` [Luminespib] + CS(=O)(=O)CCNCc1ccc(-c2ccc3ncnc(Nc4ccc(OCc5cccc(F)c5)c(Cl)c4)c3c2)o1 [Lapatinib] (partner 2 µM) the relative viability ([1]; first compound 0.002 µM) was 1.2, the relative viability ([1]; first compound 0.006325 µM) was 1.16 and the relative viability ([1]; first compound 0.02 µM) was 0.359. The relative viability ([1]; first compound 0.06325 µM) was 0.0578, the relative viability ([1]; first compound 0.2 µM) was 0.0724 and the relative viability ([2]; first compound 0.002 µM) was 0.556. The relative viability ([2]; first compound 0.006325 µM) was 0.573, the relative viability ([2]; first compound 0.02 µM) was 0.503 and the relative viability ([2]; first compound 0.06325 µM) was 0.708. The relative viability ([2]; first compound 0.2 µM) was 0.373, the relative viability ([3]; first compound 0.002 µM) was 0.486 and the relative viability ([3]; first compound 0.006325 µM) was 0.471. For the same compound, the relative viability ([3]; first compound 0.02 µM) was 0.404, the relative viability ([3]; first compound 0.06325 µM) was 0.488 and the relative viability ([3]; first compound 0.2 µM) was 0.338. It also gave a relative viability ([4]; first compound 0.002 µM) of 0.761, a relative viability ([4]; first compound 0.006325 µM) of 0.642 and a relative viability ([4]; first compound 0.02 µM) of 0.177. It also gave a relative viability ([4]; first compound 0.06325 µM) of 0.145, a relative viability ([4]; first compound 0.2 µM) of 0.176 and a relative viability ([5]; first compound 0.002 µM) of 1.33. For the same compound, the relative viability ([5]; first compound 0.006325 µM) was 0.759, the relative viability ([5]; first compound 0.02 µM) was 0.318 and the relative viability ([5]; first compound 0.06325 µM) was 0.197. For the same compound, the relative viability ([5]; first compound 0.2 µM) was 0.139, the relative viability ([6]; first compound 0.002 µM) was 1.02 and the relative viability ([6]; first compound 0.006325 µM) was 1.1. It also gave a relative viability ([6]; first compound 0.02 µM) of 0.587, a relative viability ([6]; first compound 0.06325 µM) of 0.139 and a relative viability ([6]; first compound 0.2 µM) of 0.112. The relative viability ([7]; first compound 0.002 µM) was 0.943, the relative viability ([7]; first compound 0.006325 µM) was 0.957 and the relative viability ([7]; first compound 0.02 µM) was 0.932. For the same compound, the relative viability ([7]; first compound 0.06325 µM) was 0.99, the relative viability ([7]; first compound 0.2 µM) was 0.284 and the relative viability ([8]; first compound 0.002 µM) was 1.05. It also gave a relative viability ([8]; first compound 0.006325 µM) of 0.911, a relative viability ([8]; first compound 0.02 µM) of 0.328 and a relative viability ([8]; first compound 0.06325 µM) of 0.103. The relative viability ([8]; first compound 0.2 µM) was 0.0976, the relative viability ([9]; first compound 0.002 µM) was 0.82 and the relative viability ([9]; first compound 0.006325 µM) was 0.768. For the same compound, the relative viability ([9]; first compound 0.02 µM) was 0.435, the relative viability ([9]; first compound 0.06325 µM) was 0.227 and the relative viability ([9]; first compound 0.2 µM) was 0.192. The relative viability ([10]; first compound 0.002 µM) was 0.503, the relative viability ([10]; first compound 0.006325 µM) was 0.446 and the relative viability ([10]; first compound 0.02 µM) was 0.354. The relative viability ([10]; first compound 0.06325 µM) was 0.132, the relative viability ([10]; first compound 0.2 µM) was 0.14 and the relative viability ([11]; first compound 0.002 µM) was 0.905. For the same compound, the relative viability ([11]; first compound 0.006325 µM) was 0.469, the relative viability ([11]; first compound 0.02 µM) was 0.424 and the relative viability ([11]; first compound 0.06325 µM) was 0.164. For the same compound, the relative viability ([11]; first compound 0.2 µM) was 0.133, the relative viability ([12]; first compound 0.002 µM) was 0.469 and the relative viability ([12]; first compound 0.006325 µM) was 0.464. The relative viability ([12]; first compound 0.02 µM) was 0.35, the relative viability ([12]; first compound 0.06325 µM) was 0.324 and the relative viability ([12]; first compound 0.2 µM) was 0.208. It also gave a relative viability ([13]; first compound 0.002 µM) of 0.855, a relative viability ([13]; first compound 0.006325 µM) of 0.778 and a relative viability ([13]; first compound 0.02 µM) of 0.717. For the same compound, the relative viability ([13]; first compound 0.06325 µM) was 0.474, the relative viability ([13]; first compound 0.2 µM) was 0.587 and the relative viability ([14]; first compound 0.002 µM) was 0.183. It also gave a relative viability ([14]; first compound 0.006325 µM) of 0.228, a relative viability ([14]; first compound 0.02 µM) of 0.175 and a relative viability ([14]; first compound 0.06325 µM) of 0.158. It also gave a relative viability ([14]; first compound 0.2 µM) of 0.0973, a relative viability ([15]; first compound 0.002 µM) of 0.951 and a relative viability ([15]; first compound 0.006325 µM) of 0.739. The relative viability ([15]; first compound 0.02 µM) was 0.291, the relative viability ([15]; first compound 0.06325 µM) was 0.126 and the relative viability ([15]; first compound 0.2 µM) was 0.113. For the same compound, the relative viability ([16]; first compound 0.002 µM) was 0.848, the relative viability ([16]; first compound 0.006325 µM) was 0.792 and the relative viability ([16]; first compound 0.02 µM) was 0.353. The relative viability ([16]; first compound 0.06325 µM) was 0.11, the relative viability ([16]; first compound 0.2 µM) was 0.138 and the relative viability ([17]; first compound 0.002 µM) was 0.819. For the same compound, the relative viability ([17]; first compound 0.006325 µM) was 0.748, the relative viability ([17]; first compound 0.02 µM) was 0.703 and the relative viability ([17]; first compound 0.06325 µM) was 0.243. The relative viability ([17]; first compound 0.2 µM) was 0.102, the relative viability ([18]; first compound 0.002 µM) was 1.11 and the relative viability ([18]; first compound 0.006325 µM) was 0.871. For the same compound, the relative viability ([18]; first compound 0.02 µM) was 0.0465, the relative viability ([18]; first compound 0.06325 µM) was 0.0095 and the relative viability ([18]; first compound 0.2 µM) was 0.0127. The relative viability ([19]; first compound 0.002 µM) was 0.717, the relative viability ([19]; first compound 0.006325 µM) was 0.709 and the relative viability ([19]; first compound 0.02 µM) was 0.585. It also gave a relative viability ([19]; first compound 0.06325 µM) of 0.718, a relative viability ([19]; first compound 0.2 µM) of 0.533 and a relative viability ([20]; first compound 0.002 µM) of 1.18. For the same compound, the relative viability ([20]; first compound 0.006325 µM) was 0.99, the relative viability ([20]; first compound 0.06325 µM) was 0.933 and the relative viability ([20]; first compound 0.2 µM) was 0.969.
